Laboratory results: the supplement of paper PMC11061612

What was measured:
Experiment in all cases: Bliss excess, mean over the matrix (fraction); higher = more synergy
[1] = tested on: CADO-ES1 (Ewing's Sarcoma)
Summary of the method: (§1)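 Cell lines in DMEM/F12 or RPMI with 10% FBS were plated in 1536-well plates, held 24 hours at 37°C, 5% CO2, then given two-drug dose matrices for 72 hours (DMSO typically 0.2%). Viability was read by CellTiter-Glo 2.0 luminescence and scaled as inhibition from 0 (vehicle wells) to 1 (blank wells). Combination Emax is the second-highest inhibition in the matrix; Bliss excess is observed combination effect minus expected EA + EB − EA·EB, EA and EB being single-agent effects.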

COLO-679 (Melanoma) = tested on: COLO-679 (Melanoma)
Summary of the method: as §1

[2] = tested on: EFO-21 (Ovarian Carcinoma)
Summary of the method: as §1

[3] = tested on: EJM (Plasma Cell Myeloma)
Summary of the method: as §1

[4] = tested on: G-401 (Other Solid Carcinomas)
Summary of the method: as §1

[5] = tested on: HAL-01 (B-Lymphoblastic Leukemia)
Summary of the method: as §1

[6] = tested on: HCC2998 (Colorectal Carcinoma)
Summary of the method: as §1

Hey (Ovarian Carcinoma) = tested on: Hey (Ovarian Carcinoma)
Summary of the method: as §1

[7] = tested on: KGN (Other Solid Carcinomas)
Summary of the method: as §1

[8] = tested on: KOPN-8 (B-Lymphoblastic Leukemia)
Summary of the method: as §1

[9] = tested on: MDA-MB-453 (Breast Carcinoma)
Summary of the method: as §1

[10] = tested on: ML-2 (Acute Myeloid Leukemia)
Summary of the method: as §1

[11] = tested on: MOG-G-UVW (Low Grade Glioma)
Summary of the method: as §1

[12] = tested on: Mo-T (Other Blood Carcinomas)
Summary of the method: as §1

[13] = tested on: NCI-H1993 (Lung Adenocarcinoma)
Summary of the method: as §1

[14] = tested on: NCI-H2122 (Lung Adenocarcinoma)
Summary of the method: as §1

[15] = tested on: NCI-H650 (Lung Adenocarcinoma)
Summary of the method: as §1

[16] = tested on: OACM5-1 (Esophageal Adenocarcinoma)
Summary of the method: as §1

SK-N-AS (Neuroblastoma) = tested on: SK-N-AS (Neuroblastoma)
Summary of the method: as §1

[17] = tested on: SW982 (Other Solid Carcinomas)
Summary of the method: as §1

Row | Compound | Bliss excess [1] | Bliss excess (COLO-679 (Melanoma)) | Bliss excess [2] | Bliss excess [3] | Bliss excess [4] | Bliss excess [5] | Bliss excess [6] | Bliss excess (Hey (Ovarian Carcinoma)) | Bliss excess [7] | Bliss excess [8] | Bliss excess [9] | Bliss excess [10] | Bliss excess [11] | Bliss excess [12] | Bliss excess [13] | Bliss excess [14] | Bliss excess [15] | Bliss excess [16] | Bliss excess (SK-N-AS (Neuroblastoma)) | Bliss excess [17]
1 | CC1(C)CCC(CN2CCN(c3ccc(C(=O)NS(=O)(=O)c4ccc(NCC5CCOCC5)c([N+](=O)[O-])c4)c(Oc4cnc5[nH]ccc5c4)c3)CC2)=C(c2ccc(Cl)cc2)C1 [Venetoclax] + COc1cc(Nc2ncc3c(n2)-c2ccc(Cl)cc2C(c2c(F)cccc2OC)=NC3)ccc1C(=O)O [Alisertib] (first compound max 1 µM, 7x7, partner max 10 µM) | 0.032 | 0.0194 | -0.0576 | -0.0024 | -0.0135 | 0.121 | 0.0056 | -0.0449 | -0.0167 | 0.036 | -0.0415 | 0.13 | -0.0265 | 0.0928 | -0.029 | -0.0572 | -0.0361 | 0.0758 | 0.0947 | -0.0524
2 | CN(C)CCCOc1ccc(-c2ccc3ncc4c(c3c2)n(C2CCOCC2)c(=O)n4C)cn1 [AZD0156] + C[C@@H]1COCCN1C2=NC(=NC(=C2)C3(CC3)[S@](=N)(=O)C)C4=C5C=CNC5=NC=C4 [AZD6738] (first compound max 1 µM, 7x7, partner max 10 µM) | 0.0405 | 0.0164 | -0.0206 | 0.0266 | -0.0017 | -0.0648 | 0.0637 | -0.019 | -0.0172 | -0.0166 | -0.0229 | -0.0248 | 0.0282 | -0.0382 | -0.0329 | 0.0154 | -0.011 | -0.0282 | -0.0108 | -0.0507
3 | Cc1c2c(nn1C)CSCc1cc(n(C)n1)CSc1cc(c3ccccc3c1)OCCCc1c(C(=O)O)n(C)c3c-2c(Cl)ccc13 [AZD5991] + C[C@@H](Nc1cc(F)cc(F)c1)c1cc(C(=O)N(C)C)cc2c(=O)cc(N3CCOCC3)oc12 [AZD8186] (first compound max 1 µM, 7x7, partner max 3 µM) | -0.0479 | 0.0127 | -0.0522 | -0.0129 | -0.0579 | 0.015 | 0.0026 | 0.0023 | -0.0528 | 0.0014 | -0.0506 | -0.0218 | -0.0451 | -0.0239 | 0.0246 | 0.0684 | -0.0023 | 0.0078 | -0.0122 | -0.0261
